This passage reports IC50 results from patent US9346761B2, “Arginine methyltransferase inhibitors and uses thereof” (Epizyme, Inc., priority 2013, dated 2016).

A word on the IC50: it is the concentration that inhibits the measured activity by half.

Counter-ions that a name gives are not always drawn.

The assay concerns the target T1, Human CARM1 (PRMT4) (Homo sapiens, UniProt Q86X55).
T1 construct: Flag-CARM1-His was eluted with 200 ug/ml FLAG peptide in buffer A; made in house; host or cells: HEK 293F cells (BacMam virus, pFastBacMam)
T1 sequence (Q86X55 with tags, fused parts or gaps isoform Q86X55-1): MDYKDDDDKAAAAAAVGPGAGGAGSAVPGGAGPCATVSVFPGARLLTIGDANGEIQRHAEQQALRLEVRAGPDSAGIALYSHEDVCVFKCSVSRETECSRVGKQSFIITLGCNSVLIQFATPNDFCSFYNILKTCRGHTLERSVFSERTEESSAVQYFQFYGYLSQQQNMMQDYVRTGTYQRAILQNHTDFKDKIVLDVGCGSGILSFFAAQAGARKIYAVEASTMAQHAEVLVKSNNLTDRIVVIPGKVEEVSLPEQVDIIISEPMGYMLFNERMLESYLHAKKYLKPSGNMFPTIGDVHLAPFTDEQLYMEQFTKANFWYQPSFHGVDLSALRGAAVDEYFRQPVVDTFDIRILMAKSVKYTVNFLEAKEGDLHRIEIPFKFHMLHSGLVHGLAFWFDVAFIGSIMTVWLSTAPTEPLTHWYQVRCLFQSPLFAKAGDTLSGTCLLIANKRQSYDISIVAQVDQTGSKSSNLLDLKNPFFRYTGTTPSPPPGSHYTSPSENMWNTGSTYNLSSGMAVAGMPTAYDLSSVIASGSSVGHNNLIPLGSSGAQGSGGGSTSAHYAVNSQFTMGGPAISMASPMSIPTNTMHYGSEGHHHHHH
The experiment in a line: CARM1 biochemical assay (3H-SAM Flashplate, peptide substrate). From the text:
General Materials. S-adenosylmethionine (SAM), S-adenosylhomocysteine (SAH), bicine, Tween20, dimethylsulfoxide (DMSO), bovine skin gelatin (BSG), sodium butyrate and Tris(2-carboxyethyl)phosphine hydrochloride solution (TCEP) were purchased from Sigma-Aldrich at the highest level of purity possible. ^3H-SAM was purchase from American Radiolabeled Chemicals with a specific activity of 80 Ci/mmol. 384-well streptavidin Flashplates were purchased from PerkinElmer.
Substrates. Peptide representative of human histone H3 residues 16-30 was synthesized with an N-terminal linker-affinity tag motif and a C-terminal amide cap by 21st Century Biochemicals.
Protein Expression. Recombinant baculovirus were generated according to Bac-to-Bac kit instructions (Life Technologies). […] Infections were carried out at 37° C. for 48 hours, harvested by centrifugation, and stored at −80° C. for purification.
Protein Purification. […] Column was washed with 500 mM NaCl in buffer A and Flag-CARM1-His was eluted with 200 ug/ml FLAG peptide in buffer A. Pooled fractions were dialyzed in 20 mM Tris, 150 mM NaCl, 5% glycerol and 1 mM DTT, pH 7.8.
General Procedure for CARM1 Enzyme Assays on Peptide Substrates. The assays were all performed in a buffer consisting of 20 mM Bicine (pH=7.6), 1 mM TCEP, 0.005% BSG, and 0.002% Tween 20, prepared on the day of use. […] DMSO (1 ul) was added to Columns 11, 12, 23, 24, rows A-H for the maximum signal control and 1 ul of SAH, a known product and inhibitor of CARM1, was added to columns 11, 12, 23, 24, rows I-P for the minimum signal control. A cocktail (40 ul) containing the CARM1 enzyme was added by Multidrop Combi (Thermo-Fisher). The compounds were allowed to incubate with CARM1 for 30 min at room temperature, then a cocktail (10 ul) containing ^3H-SAM and peptide was added to initiate the reaction (final volume=51 ul). […] The assays were stopped by the addition of non-radiolabeled SAM (10 ul) to a final concentration of 300 uM, which dilutes the ^3H-SAM to a level where its incorporation into the peptide substrate is no longer detectable. 50 ul of the reaction in the 384-well polypropylene plate was then transferred to a 384-well Flashplate and the biotinylated peptides were allowed to bind to the streptavidin surface for at least 1 hour before being washed once with 0.1% Tween20 in a Biotek ELx405 plate washer. The plates were then read in a PerkinElmer TopCount plate reader to measure the quantity of ^3H-labeled peptide bound to the Flashplate surface, measured as disintegrations per minute (dpm) or alternatively, referred to as counts per minute (cpm).
Where dpm=disintegrations per minute, cmpd=signal in assay well, and min and max are the respective minimum and maximum signal controls.
Where top and bottom are the normally allowed to float, but may be fixed at 100 or 0 respectively in a 3-parameter fit. The Hill Coefficient normally allowed to float but may also be fixed at 1 in a 3-parameter fit. Y is the % inhibition and X is the compound concentration.
In the case of `CNCCN(C)Cc1cn(C2CC2)nc1-c1ccc(F)cc1` [Compound 13], the IC50 is 1010 to 3000 nM.
The figure for `CNCCN(C)Cc1cnn(C2CC2)c1-c1ccc(F)cc1` [Compound 14] is 101 to 1000 nM.
The value for `CNCCN(C)Cc1cn(C(C)C)nc1-c1ccc(F)cc1` [Compound 15] was 3010 to 10000 nM; that for `CNCCN(C)Cc1cnn(C(C)C)c1-c1ccc(F)cc1` [Compound 16] was 3010 to 10000 nM; that for `CNCCN(C)Cc1cn[nH]c1-c1ccc(C#N)cc1` [Compound 17] was 1010 to 3000 nM.
The value for `CNCCN(C)Cc1cn[nH]c1-c1cc(F)cc(F)c1` [Compound 18] was 101 to 1000 nM; that for `CCCc1ccc(-c2n[nH]cc2CN(C)CCNC)cc1` [Compound 20] was 101 to 1000 nM; that for `CNCCN(C)Cc1c[nH]nc1-c1cccc([N+](=O)[O-])c1` [Compound 21] was 1010 to 3000 nM.
`CNCCN(C)Cc1c[nH]nc1-c1cccc(C#N)c1` [Compound 22]: the IC50 is 1010 to 3000 nM.
The figure for `CNCCN(C)Cc1c[nH]nc1-c1ccccc1OC` [Compound 23] is 1010 to 3000 nM; for `CNCCN(C)Cc1c[nH]nc1-c1cccc(OC)c1` [Compound 24] it is 1010 to 3000 nM; for `CNCCN(C)Cc1c[nH]nc1-c1ccc(OC)cc1` [Compound 25] it is 1010 to 3000 nM.
The value for `CNCCN(C)Cc1c[nH]nc1-c1cccc(O)c1` [Compound 26] was 1010 to 3000 nM; that for `CNCCN(C)Cc1c[nH]nc1-c1ccc(O)cc1` [Compound 27] was 1010 to 3000 nM.
For `CNCCN(C)Cc1c[nH]nc1-c1ccc(CO)cc1` [Compound 28], the IC50 lay within 101 to 1000 nM.
The value for `CNCCN(C)Cc1c[nH]nc1-c1ccc(C)cc1C` [Compound 29] was 3010 to 10000 nM; that for `CNCCN(C)Cc1cn(CCCC(O)CO)nc1-c1ccc(F)cc1` (centres unmarked) [Compound 30] was 3010 to 10000 nM.
The figure for `CNCCN(C)Cc1cnn(CCCC(O)CO)c1-c1ccc(F)cc1` (centres unmarked) [Compound 31] is 1010 to 3000 nM; for `CNCCN(C)Cc1c[nH]nc1-c1ccc(N)cc1` [Compound 33] it is 1010 to 3000 nM; for `CNCCN(C)Cc1c[nH]nc1-c1ccc(Oc2ccccc2)cc1` [Compound 37] it is < 100 nM.
For the compound `CNCCN(C)Cc1c[nH]nc1-c1ccccc1C(F)(F)F` [Compound 38], the IC50 is > 10000 nM.
As to `CNCCN(C)Cc1c[nH]nc1-c1ccccc1OC(F)(F)F` [Compound 40], the IC50 is > 10000 nM.
`CCNC(=O)c1cccc(-c2n[nH]cc2CN(C)CCNC)c1` [Compound 43] registered an IC50 of 3010 to 10000 nM.
For the compound `CCn1cc(CN(C)CCNC)c(-c2ccc(OC(C)C)cc2)n1` [Compound 213], the IC50 is 101 to 1000 nM.
The figure for `CNCCN(C)Cc1cn(C2CCCC2)nc1-c1ccc(OC(C)C)cc1` [Compound 214] is 101 to 1000 nM.
The figure for `CNCCN(C)Cc1cn(C2CCOC2)nc1-c1ccc(OC(C)C)cc1` (centres unmarked) [Compound 215] is 101 to 1000 nM; for `CNCCN(C)Cc1cnn(C2CCOC2)c1-c1ccc(OC(C)C)cc1` (centres unmarked) [Compound 216] it is 101 to 1000 nM; for `CNCCN(C)Cc1cn(Cc2ccccc2)nc1-c1ccc(OC(C)C)cc1` [Compound 217] it is 101 to 1000 nM.
Turning to `C=CCn1cc(CN(C)CCNC)c(-c2ccc(OC(C)C)cc2)n1` [Compound 218], the IC50 lay within 101 to 1000 nM.
With `C=CCn1ncc(CN(C)CCNC)c1-c1ccc(OC(C)C)cc1` [Compound 219], the IC50 lay in the range of 101 to 1000 nM.
In turn, `CNCCN(C)Cc1cn(C)nc1-c1ccc(OC(C)C)cc1` [Compound 243, N1-((3-(4-isopropoxyphenyl)-1-methyl-1H-pyrazol-4-yl)methyl)-N1,N2-dimethylethane-1,2-diamine] registered an IC50 of 101 to 1000 nM.
The value for `CNCCN(C)Cc1cn(Cc2cccnc2)nc1-c1ccc(OC(C)C)cc1` [Compound 246] was 1010 to 3000 nM.
As to `CNCCN(C)Cc1cn(Cc2ccccn2)nc1-c1ccc(OC(C)C)cc1` [Compound 247], the IC50 fell in the range of 1010 to 3000 nM.
Take `CNCCN(C)Cc1cn(CC(=O)OC)nc1-c1ccc(OC(C)C)cc1` [Compound 248]: the IC50 was 3010 to 10000 nM.
The value for `CNCCN(C)Cc1cnn(CC(=O)OC)c1-c1ccc(OC(C)C)cc1` [Compound 249] was 3010 to 10000 nM; that for `CNCCN(C)Cc1cn(CC(=O)O)nc1-c1ccc(OC(C)C)cc1` [Compound 250] was > 10000 nM; that for `CNCCN(C)Cc1cn(CC(N)=O)nc1-c1ccc(OC(C)C)cc1` [Compound 251] was 1010 to 3000 nM.
Turning to `CCn1ncc(CN(C)CCNC)c1-c1ccc(OC(C)C)cc1` [Compound 252], the IC50 fell in the range of 101 to 1000 nM.
On to `CNCCN(C)Cc1cn(CCOC)nc1-c1ccc(OC(C)C)cc1` [Compound 253, N1-((3-(4-isopropoxyphenyl)-1-(2-methoxyethyl)-1H-pyrazol-4-yl)methyl)-N1,N2-dimethylethane-1,2-diamine hydrochloride], for which the IC50 fell in the range of 1010 to 3000 nM.
The compound `CNCCN(C)Cc1cn(C2CCC2)nc1-c1ccc(OC(C)C)cc1` [Compound 254, N1-((1-cyclobutyl-3-(4-isopropoxyphenyl)-1H-pyrazol-4-yl)methyl)-N1,N2-dimethylethane-1,2-diamine hydrochloride] showed an IC50 of 101 to 1000 nM.
The figure for `CNCCN(C)Cc1cnn(C2CCCC2)c1-c1ccc(OC(C)C)cc1` [Compound 255] is 1010 to 3000 nM; for `CNCCN(C)Cc1cn(C2CCCCC2)nc1-c1ccc(OC(C)C)cc1` [Compound 256] it is 101 to 1000 nM; for `C=C(C)C(=O)Nc1cccc(-c2[nH]ncc2CN(C)CCNC)c1` [Compound 257] it is > 10000 nM.
As to `C=CC(=O)Nc1cccc(-c2[nH]ncc2CN(C)CCNC)c1` [Compound 258], the IC50 fell in the range of 1010 to 3000 nM.
